The subject of data set [1] is JEV. Nature of the data set: Antiviral effect by Western blot of JEV envelope (E) protein in BHK-21 cells. It is filed as cell-based, Japanese encephalitis virus. The following applies: 48 h, normalized to GAPDH; for reduction of expression of E protein: 20 μM, relative to non-compound treated group.
In data set [2] the target is JEV NS3 helicase (unwinding activity) (Japanese encephalitis virus, UniProt P27395). Nature of the data set: NS3 helicase unwinding inhibition, fluorescence resonance energy transfer (FRET) assay. The following applies: for highest inhibitory level on NS3 helicase unwinding activity: concentration-dependent inhibition, levels reaching as high as; for inhibition of NS3 unwinding activity in helicase inhibitor screening: screening of 41 selected compounds, FRET assay.

The target in data set [3] is JEV NS3 helicase (ATPase activity) (Japanese encephalitis virus, UniProt P27395). Nature of the data set: Effect on the ATPase activity of NS3 helicase (Kinase-Glo Plus luminescence). It is filed as biochemical. The note with it: 200 μM compound, 30 min. Here is the method: The effect of each compound on ATPase activity was tested using a nonradioactive method as previously described. […] The reaction mixture comprised 3 μM of recombinant NS3 helicase and 100 μM ATP in ATPase reaction buffer (20 mM Tris-HCl pH 8.0, 50 mM NaCl, 10 mM MgCl2). Three reactions were conducted for each test. After incubation at 37 °C for 30 min, an equal volume of Kinase-Glo Plus reagent (Promega) was added to each well to quantitate the remaining ATP. The luminescence value of each well was tested by an Infinite 200 PRO multimode reader.

In data set [4] the test system is JEV. Nature of the data set: Plaque reduction assay in BHK-21 cells. The following applies: 48 h, untreated control 3.03 × 10^6 PFU/mL.
The nature of data set [5]: Compound cytotoxicity (cell viability). The following applies: hamster.
The test system of data set [6] is JEV. Nature of the data set: Determination of EC50 (CPE inhibition, Celltiter-Glo cell viability of JEV-infected BHK-21 cells). The note with it: Japanese encephalitis virus, BHK-21, 120 h, read-out: 50% effective concentration (EC50).
In data set [7] the test system is JEV. Nature of the data set: Antiviral effect by indirect immunofluorescence assay (IFA) of NS5 in BHK-21 cells. The following applies: 48 h, JEV-infected control 84.03%.
The next data set concerns the target WNV NS2B-NS3 protease. The note with it: cited from earlier work.
Another data set deals with WNV. The note with it: WNV in cells; read-out: EC50, inhibitory effect on the virus in cells; cited from earlier work.

Sequence of JEV NS3 helicase (unwinding activity) (P27395 1684-2123): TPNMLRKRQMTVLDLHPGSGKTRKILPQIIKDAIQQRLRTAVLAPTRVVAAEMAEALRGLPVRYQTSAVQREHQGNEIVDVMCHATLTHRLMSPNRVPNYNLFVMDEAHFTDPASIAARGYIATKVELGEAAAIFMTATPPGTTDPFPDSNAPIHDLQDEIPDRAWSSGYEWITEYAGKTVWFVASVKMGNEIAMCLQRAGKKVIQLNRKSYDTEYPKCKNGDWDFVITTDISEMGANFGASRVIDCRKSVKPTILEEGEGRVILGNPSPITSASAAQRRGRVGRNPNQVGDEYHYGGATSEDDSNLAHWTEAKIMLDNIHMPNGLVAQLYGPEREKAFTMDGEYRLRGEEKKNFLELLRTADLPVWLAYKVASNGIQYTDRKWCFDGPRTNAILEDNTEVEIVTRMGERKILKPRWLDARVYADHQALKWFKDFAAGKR
Sequence of JEV NS3 helicase (ATPase activity) (P27395 1684-2123): as above

As for `CS(=O)(=O)c1ccc2nc(NC(=O)c3ccc(Cn4cc([N+](=O)[O-])cn4)cc3)sc2c1` [compound 1], the “reduction of expression of E protein” value in the data set on JEV [1] came out at 70.1%. In data set [2], this compound yielded a concentration for half-maximal inhibition (IC50) of 148 µM. In addition, the “highest inhibitory level on NS3 helicase unwinding activity” value in data set [2] was found to be 79%. Besides, in data set [2], the “inhibition of NS3 unwinding activity in helicase inhibitor screening” value is reported as “more than 60%”. Also, the “inhibition of ATPase activity of NS3 helicase” value in data set [3] is “do not inhibit the ATPase activity”. Further, the average virus titer with JEV [4] (20 μM) was 2.7 × 10^4 PFU/mL; in the data set with JEV [4] (30 μM), 2.1 × 10^4 PFU/mL; with JEV [4] (40 μM), 8.9 × 10^3 PFU/mL. In addition, in data set [5], half-maximal cytotoxicity (CC50 at 120 h) was put at 168 µM. Further, in the data set on JEV [6], the EC50 is 25.7 µM. Further, the “level of JEV-positive cells (NS5 positive)” value is reported as 58.71% in the data set with JEV [7] (5 μM) and 13.29% with JEV [7] (25 μM).
Turning to `CCCC(=O)Nc1nc2ccc(NC(=S)NC(=O)c3cccs3)cc2s1` [compound 2], the “inhibition of E protein expression” value with JEV [1] (5 μM) is reported as 86.3%. In addition, in the data set on JEV [1], the “reduction of expression of E protein” value was determined as 94.8%. It took 150 µM to reach half-maximal inhibition in data set [2] (IC50). The “highest inhibitory level on NS3 helicase unwinding activity” value in data set [2] is recorded as 73%. Also, in data set [2], the “inhibition of NS3 unwinding activity in helicase inhibitor screening” value is “more than 60%”. For the same compound, in [3], the “inhibition of ATPase activity of NS3 helicase” value was “do not inhibit the ATPase activity”. The average virus titer was 4.65 × 10^4 PFU/mL in the data set on JEV [4] (10 μM), 3.6 × 10^4 PFU/mL with JEV [4] (20 μM), 2.6 × 10^4 PFU/mL in the data set with JEV [4] (30 μM) and 1.8 × 10^4 PFU/mL in the data set with JEV [4] (40 μM). Moreover, the viability at 120 h, 200 µM in data set [5] was more than 60%. Besides, in the data set with JEV [6], the EC50 is 23.5 µM. The “level of JEV-positive cells (NS5 positive)” value with JEV [7] (5 μM) came out at 50.40%; with JEV [7] (25 μM) it was 10.07%.
Regarding phenacetyl-KKR-Aldehyde, the Ki at WNV NS2B-NS3 protease is 0.009 µM. Besides, in the data set on WNV, the EC50 was 1.6 µM.

The values are drawn from paper PMC5041104, “Structure-based discovery of two antiviral inhibitors targeting the NS3 helicase of Japanese encephalitis virus” (Scientific Reports, 2016).
